SMILES strings stand for the structures.

In general, IC50 refers to the concentration needed to halve the response being measured. In general, inhibition refers to the percentage by which the read-out fell short of the control. Read a low inhibition as little suppression.

The subject of one assay is MAPK phosphorylation in PANC-1 pancreatic cancer cell line. The assay can be described thus: MAPK cell-based phosphorylation assay (cell-direct ELISA, EGF stimulation). The settings on record: Homo sapiens. A digest of the protocol:
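Cell-direct ELISA measured phospho-MAPK, with fluorescence read at 595 nm from AmpliFlu Red. Before fixation, PANC-1 cells starved overnight received 6 hours of compound (30 μM single dose or serial dilutions, 0.3% DMSO, 37° C), followed by 1.5 ng/ml EGF for 15 min.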
For orientation: In an ELISA, binding on a coated surface is turned into a signal by an enzyme label.
`O=C(c1csc2c(O)nc(-c3ccccn3)nc12)N1CCOC(c2cccc(F)c2)C1` (stereo not shown) [drawing 1128] displayed an IC50 of over 30 µM. The compound `COCC(C)Nc1nc(-c2ccccn2)nc2sc(C)c(-c3ccccc3)c12` (stereo not shown) [drawing 1040] came in with an IC50 of 11 to 30 µM. Same read-out and setting: the same measure for `Oc1nc(-c2ccccn2)nc2c(-c3ccccc3Cl)csc12` [drawing 1075]: under 2 µM.

The same assay, now with this note: Homo sapiens, * = tested at 10 μM.
`Cn1cnc(-c2nc(O)c3c(-c4ccccc4)c(-c4ccncc4)sc3n2)c1` [drawing 1288] registered an inhibition at 10 µM of 25 to 50%. Still for that read-out and setting: with `COCCNc1nc(-c2cn(C)cn2)nc2sc(C)c(-c3ccccc3)c12` [drawing 1345] the figure was 25 to 50%; with `Oc1nc(-c2ccccn2)nc2c(-c3ccc4c(c3)CCCO4)csc12` [drawing 1238], 76 to 100%. `COc1cccc(-c2csc3c(O)nc(-c4ccccn4)nc23)c1` [drawing 1211] came in with an inhibition at 10 µM of 1 to 25%.

In turn, `Oc1nc(-c2ccccn2)nc2c(-c3cncc(C(F)F)c3)csc12` [drawing 1268] returned an inhibition at 10 µM of 0%. On to `CCOCCOc1nc(-c2nccn2C)nc2sc(-c3ccccc3)c(-c3ccccc3)c12` [drawing 1332], for which the inhibition at 10 µM came to 0%. `COC(=O)c1c(C)sc2c(O)nc(-c3ccccn3)nc12` [drawing 1247] gave an inhibition at 10 µM of 1 to 25%. Compound `COc1ccc(COC[C@H]2O[C@@H](c3csc4c(=O)[nH]c(-c5ccccn5)nc34)[C@H](O)[C@@H]2O)cc1` [drawing 1293] returned an inhibition at 10 µM of 0%.

The compound `O=C(CCn1ccnc1)Nc1nc(-c2ccccn2)nc2sccc12` [drawing 1226] returned an inhibition at 10 µM of 1 to 25%. The same measure, in the same setting: the same measure for `Cn1ccnc1-c1nc(O)c2scc(-c3cccc(Cl)c3)c2n1` [drawing 1377]: 25 to 50%; for `Cn1ccnc1-c1nc(O)c2scc(-c3cccc(C(F)(F)F)c3)c2n1` [drawing 1358]: 25 to 50%. Same read-out and setting: with `COCC(C)Nc1nc(-c2nccn2C)nc2sc(-c3ccccc3)c(-c3ccccc3)c12` (stereo not shown) [drawing 1337] the figure was 76 to 100%. Still for that read-out and setting: with `Oc1nc(-c2ccccn2)nc2c(-c3ccc(C4CCC4)cc3)csc12` [drawing 1204] the figure was 51 to 75%; with `COCCNc1nc(-c2nccn2C)nc2sc(-c3ccccc3)c(-c3ccncc3)c12` [drawing 1356], 25 to 50%; with `Cc1sc2c(O)nc(-c3ccccn3)nc2c1-c1ccccc1` [drawing 1241], 76 to 100%. In the case of `Oc1nc(-c2ccccn2)nc2c(-c3ccc(OC(F)F)cc3F)csc12` [drawing 1215], the inhibition at 10 µM is 51 to 75%. Compound `CC(C)(O)c1ccc(-c2csc3c(O)nc(-c4ccccn4)nc23)c(F)c1` [drawing 1219] had an inhibition at 10 µM of 76 to 100%. The same measure, in the same setting: the same measure for `N#Cc1ccc2c(c1)CCCC2C(=O)Nc1ccnc(-c2ccccn2)n1` (stereo not shown) [drawing 1197]: 1 to 25%; for `Oc1nc(-c2ccccn2)nc2c(CC3CCNC3)csc12` (stereo not shown) [drawing 1286]: 1 to 25%. The same measure, in the same setting: the same measure for `Cc1sc2c(O)nc(-c3ccccn3)nc2c1-c1ccccc1Cl` [drawing 1275]: 76 to 100%; for `COCCNc1nc(-c2nccn2C)nc2sc(-c3ccccc3)c(-c3ccccc3Cl)c12` [drawing 1340]: 76 to 100%. Still for that read-out and setting: the same measure for `Oc1nc(-c2ccccn2)nc2cc(-c3cccc(Br)c3)sc12` [drawing 1324]: 25 to 50%; for `CC(O)CNc1nc(-c2nccn2C)nc2sc(-c3ccccc3)c(-c3ccccc3)c12` (stereo not shown) [drawing 1329]: 1 to 25%. Compound `CC(C)COc1ccc(-c2csc3c(O)nc(-c4cn(C)cn4)nc23)cn1` [drawing 1365] displayed an inhibition at 10 µM of 1 to 25%. With `Oc1nc(-c2ccccn2)nc2c(-c3ccnn3-c3ccccn3)csc12` [drawing 1240], the inhibition at 10 µM fell in the range of 1 to 25%. Take `Cc1sc2c(O)nc(-c3ccccn3)nc2c1-c1ccncc1` [drawing 1258]: the inhibition at 10 µM was 51 to 75%. On the same count and under the same terms, with `CC(C)(C)c1sc2c(O)nc(-c3ccccn3)nc2c1Br` [drawing 1314] the figure was 1 to 25%; with `CCn1nc(C)cc1-c1csc2c(O)nc(-c3ccccn3)nc12` [drawing 1239], 1 to 25%; with `CC(C)OCCNc1nc(-c2nccn2C)nc2sc(-c3ccccc3)c(-c3ccccc3)c12` [drawing 1327], 76 to 100%. Still for that read-out and setting: with `COC(=O)c1cc2nc(-c3ccccn3)nc(O)c2s1` [drawing 1243] the figure was 25 to 50%. The same measure, in the same setting: with `COc1nc(-c2ccccn2)nc2c1c(-c1ccccc1)nn2-c1ccccn1` [drawing 1300] the figure was 25 to 50%; with `CCC(C)c1csc2c(OC)nc(-c3ccccn3)nc12` (stereo not shown) [drawing 1245], 25 to 50%; with `Cc1cnc(-c2ccccn2)nc1NC(=O)Cc1ccc2cnccc2c1` [drawing 1198], 25 to 50%. Compound `COCCNc1nc(-c2cccc(N)n2)nc2sc(-c3ccccc3)c(-c3ccccc3)c12` [drawing 1351] showed an inhibition at 10 µM of 51 to 75%. As to `COCC(C)Nc1nc(-c2ccccn2)nc2sc(-c3ccncc3)c(-c3ccccc3)c12` (stereo not shown) [drawing 1301], the inhibition at 10 µM was 0%. The same measure, in the same setting: with `OCC1(c2ccc(-c3nc(-c4ccccn4)nc(-c4ccc(C5(CO)CC5)cc4)c3Oc3ccccc3)cc2)CC1` [drawing 1292] the figure was 51 to 75%. As for `Nc1nc(-c2ccccn2)nc2c(Br)csc12` [drawing 1229], the inhibition at 10 µM lay within 25 to 50%. Same read-out and setting: the same measure for `COc1nc(-c2cn(C)cn2)nc2sc(-c3ccncc3)c(-c3ccccc3)c12` [drawing 1291]: 1 to 25%. Turning to `COc1nc(-c2ccccn2)nc(Oc2cccc(C(F)(F)F)c2)c1OC` [drawing 1312], 10 µM produced 0% inhibition. Same read-out and setting: the same measure for `COC(=O)c1c(C)sc2c(N)nc(-c3ccccn3)nc12` [drawing 1260]: 25 to 50%.

Staying with this assay, now noted: Homo sapiens, at 30 μM.
As for `O=C(CC(c1ccccc1)c1ccccc1)N1CCCc2c(O)nc(-c3ccccn3)nc21` [drawing 1061], the inhibition at 30 µM is 1 to 25%. In turn, `COc1ccc2c(ccn2CC(=O)Nc2nnc(-c3ccccn3)[nH]2)c1` [drawing 1000] yielded an inhibition at 30 µM of 1 to 25%. Same read-out and setting: the same measure for `COc1ccc(C2CN(C(=O)c3csc4c(O)nc(-c5ccccn5)nc34)CCN2)cc1` (stereo not shown) [drawing 1151]: 25 to 50%; for `Cc1nc2nc(C(F)(F)F)nn2c(C)c1CC(=O)Nc1nnc(-c2ccccn2)[nH]1` [drawing 1020]: 1 to 25%. Compound `CCCNC(=O)CN1CCN(c2nc(-c3ccccn3)nc3sc(-c4ccccc4)cc23)CC1` [drawing 1086] yielded an inhibition at 30 µM of 76 to 100%. In turn, `O=C(Nc1nnc(-c2ccccn2)[nH]1)c1ccc(CN2C(=O)CCC2=O)cc1` [drawing 1004] returned an inhibition at 30 µM of 1 to 25%. For `COc1ccccc1C1CN(C(=O)c2csc3c(O)nc(-c4ccccn4)nc23)CCO1` (stereo not shown) [drawing 1148], the inhibition at 30 µM was in the range of 1 to 25%. In turn, `O=C(Nc1nnc(-c2ccccn2)[nH]1)C1CCN(C(=O)c2cccs2)CC1` [drawing 1027] registered an inhibition at 30 µM of 1 to 25%. As for `Cc1cnc(-c2ccccn2)nc1NC(=O)C(C)c1ccc(C#N)cc1` (stereo not shown) [drawing 1160], the inhibition at 30 µM fell in the range of 1 to 25%. Still for that read-out and setting: with `O=C(c1csc2c(O)nc(-c3ccccn3)nc12)N1CCOC(c2cccc(F)c2)C1` (stereo not shown) [drawing 1128] the figure was 1 to 25%; with `Cc1cnc(-c2ccccn2)nc1NC(=O)Cc1ccc(C#N)cc1` [drawing 1173], 51 to 75%. Still for that read-out and setting: with `COCC(C)Nc1nc(-c2ccccn2)nc2sc(C)c(-c3ccccc3)c12` (stereo not shown) [drawing 1040] the figure was 76 to 100%; with `COc1ccccc1N1CCN(C(=O)c2csc3c(O)nc(-c4ccccn4)nc23)CC1` [drawing 1117], 1 to 25%. The same measure, in the same setting: with `O=C(NCCc1cnc(O)nc1)c1csc2nc(-c3ccccn3)nc(N3CCOCC3)c12` [drawing 1169] the figure was 25 to 50%; with `Oc1nc(-c2ccccn2)nc2c(C3CCNCC3)csc12` [drawing 1116], 1 to 25%.

Consider `COc1ccc(CC(=O)Nc2nnc(-c3ccccn3)[nH]2)cc1` [drawing 1006], for which the inhibition at 30 µM lay in the range of 1 to 25%.

Take `CON(C)c1nc(-c2ccccn2)nc2scc(-c3ccccc3)c12` [drawing 1095]: the inhibition at 30 µM lay in the range of 25 to 50%. `O=C(c1csc2c(O)nc(-c3ccccn3)nc12)N1CCC(c2cccnc2)CC1` [drawing 1070] came in with an inhibition at 30 µM of 1 to 25%. The same measure, in the same setting: with `O=C(c1csc2c(O)nc(-c3ccccn3)nc12)N1CCN(c2ccccc2Cl)CC1` [drawing 1119] the figure was 1 to 25%; with `COc1ccc2c(c1)CCC2C(=O)Nc1ccnc(-c2ccccn2)n1` (stereo not shown) [drawing 1159], 1 to 25%; with `O=C(Nc1nc(-c2ccccn2)cs1)c1ccncc1` [drawing 1034], 25 to 50%. Still for that read-out and setting: with `COc1ccc(COCC(=O)N2CCCc3c(O)nc(-c4ccccn4)nc32)cc1` [drawing 1057] the figure was 1 to 25%; with `O=C(c1csc2c(O)nc(-c3ccccn3)nc12)N1CCNC(c2ccccc2F)C1` (stereo not shown) [drawing 1153], 1 to 25%; with `O=C(Nc1nc(-c2ccccn2)cs1)c1cccnc1` [drawing 1032], 1 to 25%. As for `Oc1nc(-c2ccccn2)nc2c(-c3ccccc3Cl)csc12` [drawing 1075], the inhibition at 30 µM is 76 to 100%.

As to `Cc1ccccc1C1CN(C(=O)c2csc3c(O)nc(-c4ccccn4)nc23)CCN1` (stereo not shown) [drawing 1152], the inhibition at 30 µM is 1 to 25%.

`O=C(Cn1c(=O)oc2ccccc21)Nc1nnc(-c2ccccn2)[nH]1` [drawing 1010] registered an inhibition at 30 µM of 1 to 25%.

In turn, `Clc1csc2nc(-c3ccccn3)nc(N3CCOCC3)c12` [drawing 1113] gave an inhibition at 30 µM of 1 to 25%. On to `Cc1ccc(CC(=O)Nc2nnc(-c3ccccn3)[nH]2)s1` [drawing 1018], for which the inhibition at 30 µM was 1 to 25%.

As to `CC(=O)N1CCN(c2nc(-c3ccccn3)nc3scc(-c4ccccc4)c23)CC1` [drawing 1109], the inhibition at 30 µM was in the range of 25 to 50%. Compound `OC1CCN(c2nc(-c3ccccn3)nc3scc(-c4ccccc4)c23)CC1` [drawing 1103] showed an inhibition at 30 µM of 1 to 25%.

`Cc1sc2nc(-c3ccccn3)nc(NCCCO)c2c1-c1ccccc1` [drawing 1043]: the inhibition at 30 µM fell in the range of 1 to 25%. `O=C(Nc1nnc(-c2ccccn2)[nH]1)c1ccc2c(c1)CCO2` [drawing 995]: the inhibition at 30 µM lay in the range of 1 to 25%.
